Source: patent publication US20240317735A1, “HYDROISOQUINOLINE OR HYDRONAPHTHYRIDINE COMPOUNDS FOR THE TREATMENT OF AUTOIMMUNE DISEASE” (Hoffmann-La Roche Inc., priority 2020, published 2024)

Target: T1, human TLR8 (Homo sapiens, UniProt Q9NR97)
T1 construct: host or cells: HEK293 (HEK-Blue hTLR8)
T1 sequence (Q9NR97 27-1041): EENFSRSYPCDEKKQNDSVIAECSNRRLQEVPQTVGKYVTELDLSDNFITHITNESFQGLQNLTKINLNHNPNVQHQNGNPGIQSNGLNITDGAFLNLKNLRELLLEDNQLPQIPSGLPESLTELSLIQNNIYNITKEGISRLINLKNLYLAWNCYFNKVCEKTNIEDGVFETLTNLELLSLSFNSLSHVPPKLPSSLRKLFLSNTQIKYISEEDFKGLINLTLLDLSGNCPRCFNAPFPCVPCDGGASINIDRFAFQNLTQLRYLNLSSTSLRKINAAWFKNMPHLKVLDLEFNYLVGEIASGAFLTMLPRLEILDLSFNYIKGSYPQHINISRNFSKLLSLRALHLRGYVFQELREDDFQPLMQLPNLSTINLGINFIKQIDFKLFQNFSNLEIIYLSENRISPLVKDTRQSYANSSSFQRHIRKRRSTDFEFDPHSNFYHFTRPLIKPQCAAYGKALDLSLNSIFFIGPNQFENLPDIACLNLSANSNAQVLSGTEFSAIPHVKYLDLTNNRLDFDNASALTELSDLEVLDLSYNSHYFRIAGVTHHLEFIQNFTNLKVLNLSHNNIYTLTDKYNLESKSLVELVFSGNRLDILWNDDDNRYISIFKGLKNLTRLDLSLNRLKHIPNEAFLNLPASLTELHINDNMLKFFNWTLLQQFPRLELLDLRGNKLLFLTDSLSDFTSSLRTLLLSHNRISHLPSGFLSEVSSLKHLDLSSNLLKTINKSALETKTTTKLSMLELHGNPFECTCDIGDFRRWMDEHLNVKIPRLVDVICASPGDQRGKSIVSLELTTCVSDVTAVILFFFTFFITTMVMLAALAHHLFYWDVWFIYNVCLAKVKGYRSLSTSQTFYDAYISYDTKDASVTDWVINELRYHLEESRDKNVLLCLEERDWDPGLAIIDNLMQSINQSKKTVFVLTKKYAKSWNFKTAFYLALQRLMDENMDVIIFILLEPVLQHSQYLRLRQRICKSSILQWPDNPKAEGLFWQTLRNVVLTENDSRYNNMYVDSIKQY
Experiment: HEK293-Blue-hTLR-8 cells assay (SEAP reporter, R848 stimulation)
Assay type: cell-based
Conditions: HEK293-Blue-hTLR8 cells, R848, 20 hrs; read-out: HEK/hTLR8 IC50
Experimental: The following tests were carried out in order to determine the activity of the compounds of formula (I) and (Ia) in HEK293-Blue-hTLR-7/8/9 cells assay.
A stable HEK293-Blue-hTLR-8 cell line was purchased from InvivoGen (Cat. #: hkb-htlr8, San Diego, California, USA). These cells were originally designed for studying the stimulation of human TLR8 by monitoring the activation of NF-κB. A SEAP (secreted embryonic alkaline phosphatase) reporter gene was placed under the control of the IFN-β minimal promoter fused to five NF-κB and AP-1-binding sites. The SEAP was induced by activating NF-κB and AP-1 via stimulating HEK-Blue hTLR8 cells with TLR8 ligands. Therefore the reporter expression was declined by TLR8 antagonist under the stimulation of a ligand, such as R848, for incubation of 20 hrs. The cell culture supernatant SEAP reporter activity was determined using QUANTI-Blue™ kit (Cat. #: rep-qb1, Invivogen, San Diego, Ca, USA) at a wavelength of 640 nm, a detection medium that turns purple or blue in the presence of alkaline phosphatase.
HEK293-Blue-hTLR8 cells were incubated at a density of 250,000˜450,000 cells/mL in a volume of 170 μL in a 96-well plate in Dulbecco's Modified Eagle's medium (DMEM) containing 4.5 g/L glucose, […] penicillin, […], […] Normocin, 2 mM L-glutamine, 10% (v/v) heat-inactivated fetal bovine serum with addition of 20 μL test compound in a serial dilution in the presence of final DMSO at 1% and 10 μL of 60 uM R848 in above DMEM, perform incubation under 37° C. in a C02 incubator for 20 hrs. Then 20 μL of the supernatant from each well was incubated with 180 μL Quanti-blue substrate solution at 37° C. for 2 hrs and the absorbance was read at 620-655 nm using a spectrophotometer. The signaling pathway that TLR8 activation leads to downstream NF-κB activation has been widely accepted, and therefore similar reporter assay was modified for evaluating TLR8 antagonist.

SMILES	IC50
C[C@H]1CN(c2ccnc3c2cnn3C)Cc2ccc(N3CCN(Cc4cn(C)cn4)CC3)cc21 [Example 37, (4R)-4-methyl-6-[4-[(1-methylimidazol-4-yl)methyl]piperazin-1-yl]-2-(1-methylpyrazolo[3,4-b]pyridin-4-yl)-3,4-dihydro-1H-isoquinoline]	5 nM
Cc1cc(N2Cc3ccc(N4CCN(C)CC4)nc3[C@@H](C)C2)c2cnn(C)c2n1 [Example 67, (8S)-6-(1,6-dimethylpyrazolo[3,4-b]pyridin-4-yl)-8-methyl-2-(4-methylpiperazin-1-yl)-7,8-dihydro-5H-1,6-naphthyridine]	1 nM
C[C@H]1CN(c2ccnc3c2cnn3C)Cc2ccc(N3CC4(CNC4)CC3=O)cc21 [Example 34, 6-[(4R)-4-methyl-2-(1-methylpyrazolo[3,4-b]pyridin-4-yl)-3,4-dihydro-1H-isoquinolin-6-yl]-2,6-diazaspiro[3.4]octan-7-one]	26 nM
CO[C@H]1CN(c2cc3c(cn2)CN(c2cc(C)nc4c2cnn4C)C[C@@H]3C)CC[C@@H]1N [Example 73, (3S,4S)-3-methoxy-1-[(5R)-7-(1,6-dimethylpyrazolo[3,4-b]pyridin-4-yl)-5-methyl-6,8-dihydro-5H-2,7-naphthyridin-3-yl]piperidin-4-amine]	2 nM
Cc1cc(N2Cc3ccc(OC4CCNCC4)nc3[C@@H](C)C2)c2cnn(C)c2n1 [Example 64, (8S)-6-(1,6-dimethylpyrazolo[3,4-b]pyridin-4-yl)-8-methyl-2-(4-piperidyloxy)-7,8-dihydro-5H-1,6-naphthyridine]	4 nM
C[C@H]1CN(c2ccnc3c2cnn3C)Cc2ccc(OC[C@@H]3CNCCN3C=O)cc21 [Example 45, (2S)-2-[[(4R)-4-methyl-2-(1-methylpyrazolo[3,4-b]pyridin-4-yl)-3,4-dihydro-1H-isoquinolin-6-yl]oxymethyl]piperazine-1-carbaldehyde]	10 nM
COC[C@H]1CN(c2cc3c(cn2)CN(c2cc(C)nc4c2cnn4C)C[C@@H]3C)CCN1 [Example 81, (4R)-2-(1,6-dimethylpyrazolo[3,4-b]pyridin-4-yl)-4-methyl-6-[(3R)-3-(methoxymethyl)piperazin-1-yl]-3,4-dihydro-1H-2,7-naphthyridine]	8 nM
Cc1cc(N2Cc3ccc(OC[C@H]4CNCCN4)cc3[C@@H](C)C2)c2cnn(C)c2n1 [Example 30, (4R)-2-(1,6-dimethylpyrazolo[3,4-b]pyridin-4-yl)-4-methyl-6-[[(2R)-piperazin-2-yl]methoxy]-3,4-dihydro-1H-isoquinoline]	2 nM
Cc1cc(N2Cc3ccc(N4CCOC5(CNC5)C4)nc3[C@@H](C)C2)c2cnn(C)c2n1 [Example 70, 8-[(8S)-6-(1,6-dimethylpyrazolo[3,4-b]pyridin-4-yl)-8-methyl-7,8-dihydro-5H-1,6-naphthyridin-2-yl]-5-oxa-2,8-diazaspiro[3.5]nonane]	28 nM
C[C@H]1CN(c2ccnc3c2cnn3C)Cc2ccc(N3CCN[C@@H](CO)C3)cc21 [Example 50, [(2R)-4-[(4R)-4-methyl-2-(1-methylpyrazolo[3,4-b]pyridin-4-yl)-3,4-dihydro-1H-isoquinolin-6-yl]piperazin-2-yl]methanol]	3 nM
C[C@H]1CN(c2ccnc3c2cnn3C)Cc2ccc(N3CCN[C@H](CO)C3)cc21 [Example 51, [(2S)-4-[(4R)-4-methyl-2-(1-methylpyrazolo[3,4-b]pyridin-4-yl)-3,4-dihydro-1H-isoquinolin-6-yl]piperazin-2-yl]methanol]	4 nM
C[C@H]1CN(c2ccnc3c2cnn3C)Cc2ccc(N3CC4(CCNC4)CC3=O)cc21 (stereo partly drawn) [Example 52, 2-[(4R)-4-methyl-2-(1-methylpyrazolo[3,4-b]pyridin-4-yl)-3,4-dihydro-1H-isoquinolin-6-yl]-2,7-diazaspiro[4.4]nonan-3-one]	3 nM
C[C@H]1CN(c2ccnc3c2cnn3C)Cc2ccc(N3CCC(N4CC[C@@H](N)[C@H](O)C4)CC3)cc21 [Example 29, trans-4-amino-1-[1-[(4R)-4-methyl-2-(1-methylpyrazolo[3,4-b]pyridin-4-yl)-3,4-dihydro-1H-isoquinolin-6-yl]-4-piperidyl]piperidin-3-ol]	2 nM
CO[C@@H]1CN(c2cc3c(cn2)CN(c2cc(C)nc4c2cnn4C)C[C@@H]3C)C[C@H]1N [Example 78, (3R,4R)-4-methoxy-1-[(5R)-7-(1,6-dimethylpyrazolo[3,4-b]pyridin-4-yl)-5-methyl-6,8-dihydro-5H-2,7-naphthyridin-3-yl]pyrrolidin-3-amine]	52 nM
Cn1ncc2c(N3CCc4cc(N5CCNCC5)ccc4C3)ccnc21 [Example 3, 2-(1-methylpyrazolo[3,4-b]pyridin-4-yl)-6-piperazin-1-yl-3,4-dihydro-1H-isoquinoline]	56 nM

Other lines, results leading:

IC50	SMILES
1 nM	Cc1cc(N2Cc3ccc(N4CCC(O)(CN(C)C)CC4)cc3[C@@H](C)C2)c2cnn(C)c2n1 [Example 14, 4-[(dimethylamino)methyl]-1-[(4R)-2-(1,6-dimethylpyrazolo[3,4-b]pyridin-4-yl)-4-methyl-3,4-dihydro-1H-isoquinolin-6-yl]piperidin-4-ol]
1 nM	Cc1cc(N2Cc3ccc(N4CCNCC4)nc3[C@@H](C)C2)c2cnn(C)c2n1 [Example 66, (8S)-6-(1,6-dimethylpyrazolo[3,4-b]pyridin-4-yl)-8-methyl-2-piperazin-1-yl-7,8-dihydro-5H-1,6-naphthyridine]
2 nM	Cc1cc(N2Cc3cnc(N4CCNCC4)cc3[C@@H](C)C2)c2cnn(C)c2n1 [Example 74, (4R)-2-(1,6-dimethylpyrazolo[3,4-b]pyridin-4-yl)-4-methyl-6-piperazin-1-yl-3,4-dihydro-1H-2,7-naphthyridine]
10 nM	Cc1cc(N2Cc3ccc(N4CCC5(CCNCC5)CC4)cc3C(C)C2)c2cnn(C)c2n1 (centres unmarked) [Example 5, 3-[2-(1,6-dimethylpyrazolo[3,4-b]pyridin-4-yl)-4-methyl-3,4-dihydro-1H-isoquinolin-6-yl]-3,9-diazaspiro[5.5]undecane]
1 nM	C[C@H]1CN(c2ccnc3c2cnn3C)Cc2ccc(N3CCC(N4CCNCC4)CC3)cc21 [Example 10, (4R)-4-methyl-2-(1-methylpyrazolo[3,4-b]pyridin-4-yl)-6-(4-piperazin-1-yl-1-piperidyl)-3,4-dihydro-1H-isoquinoline]
0.5 nM	Cc1cc(N2Cc3ccc(N4CCC(C)(N)CC4)nc3[C@@H](C)C2)c2cnn(C)c2n1 [Example 59, 4-methyl-1-[(8S)-6-(1,6-dimethylpyrazolo[3,4-b]pyridin-4-yl)-8-methyl-7,8-dihydro-5H-1,6-naphthyridin-2-yl]piperidin-4-amine]
7 nM	CO[C@@H]1CN(c2ccc3c(c2)[C@@H](C)CN(c2cc(C)nc4c2cnn4C)C3)C[C@H]1N [Example 23, (3R,4R)-4-methoxy-1-[(4R)-2-(1,6-dimethylpyrazolo[3,4-b]pyridin-4-yl)-4-methyl-3,4-dihydro-1H-isoquinolin-6-yl]pyrrolidin-3-amine]
1 nM	Cc1cc(N2Cc3ccc(N4CCNCC4)cc3[C@@H](C)C2)c2cnn(C)c2n1 [Example 2, (4R)-2-(1,6-dimethylpyrazolo[3,4-b]pyridin-4-yl)-4-methyl-6-piperazin-1-yl-3,4-dihydro-1H-isoquinoline]
